Test results from ChEMBL document CHEMBL5356959, “Bifunctional backbone modified squaramide dipeptides as amyloid beta (Aβ) aggregation inhibitors” (Bioorg Med Chem, 2024).
The source made the active and inactive calls. The calls are words filed in the database; no cut-off is given here.

Tests used:
N2a = experiment: Cytotoxicity against mouse Neuro2a cells assessed as reduction in cell viability at 50 uM incubated for 48 hrs by Alamar blue assay; format: toxicity, cell-based
[1] = biological target: T1, Amyloid-beta precursor protein (Homo sapiens, UniProt P05067); experiment: Inhibition of amyloid-beta (unknown origin) aggregation at 25 uM at 1:10 compound:amyloidbeta ratio incubated for 24 hrs by ThT fluorescence assay
T1 sequence (P05067 whole entry): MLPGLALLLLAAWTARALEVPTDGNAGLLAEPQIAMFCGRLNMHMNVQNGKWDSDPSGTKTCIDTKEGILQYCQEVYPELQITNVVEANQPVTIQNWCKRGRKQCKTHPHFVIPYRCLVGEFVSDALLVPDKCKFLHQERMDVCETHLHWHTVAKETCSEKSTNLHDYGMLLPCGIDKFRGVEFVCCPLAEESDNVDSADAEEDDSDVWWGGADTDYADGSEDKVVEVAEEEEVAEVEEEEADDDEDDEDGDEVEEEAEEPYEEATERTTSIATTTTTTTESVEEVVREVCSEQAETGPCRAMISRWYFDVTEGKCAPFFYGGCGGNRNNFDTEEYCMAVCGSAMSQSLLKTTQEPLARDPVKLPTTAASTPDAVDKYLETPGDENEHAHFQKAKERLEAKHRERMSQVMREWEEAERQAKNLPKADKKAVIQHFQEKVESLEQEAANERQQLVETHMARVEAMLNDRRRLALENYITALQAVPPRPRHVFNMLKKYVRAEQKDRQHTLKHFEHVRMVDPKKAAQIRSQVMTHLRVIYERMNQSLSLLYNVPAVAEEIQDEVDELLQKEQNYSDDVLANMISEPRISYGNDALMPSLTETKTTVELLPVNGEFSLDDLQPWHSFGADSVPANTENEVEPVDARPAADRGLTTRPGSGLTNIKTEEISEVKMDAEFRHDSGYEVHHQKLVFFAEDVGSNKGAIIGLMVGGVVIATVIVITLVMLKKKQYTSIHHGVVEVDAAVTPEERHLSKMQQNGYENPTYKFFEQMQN

[2] = biological target: T1, Amyloid-beta precursor protein; experiment: Inhibition of amyloid-beta (unknown origin) aggregation at 1:10 compound:amyloidbeta ratio incubated for 24 hrs by ThT fluorescence assay
[3] = Metal chelating activity assessed as compound-Cu(II) complex formation by measuring hyperchromic shift incubated for 30 mins by UV-Visible spectrophotometric analysis
[4] = Metal chelating activity assessed as compound-Fe(III) complex formation by measuring hyperchromic shift incubated for 30 mins by UV-Visible spectrophotometric analysis
[5] = Metal chelating activity assessed as compound-Zn(II) complex formation by measuring hyperchromic shift incubated for 30 mins by UV-Visible spectrophotometric analysis
[6] = biological target: T1, Amyloid-beta precursor protein; experiment: Inhibition of Cu(II)-induced amyloid-beta (unknown origin) aggregation assessed as disaggregation at 10 uM preincubated with CuSO4.5H2O for 30 mins followed by compound addition and measured after 24 hrs by ThT fluorescence assay
[7] = Competitive binding affinity to Fe(III) assessed as metal chelating activity by measuring compound-Fe(III) complex formation incubated for 30 mins in the presence of MnCl2 by UV-Visible spectrophotometric analysis
[8] = Competitive binding affinity to Fe(III) assessed as metal chelating activity by measuring compound-Fe(III) complex formation incubated for 30 mins in the presence of copper by UV-Visible spectrophotometric analysis
[9] = Competitive binding affinity to Cu(II) assessed as metal chelating activity by measuring compound-Cu(II) complex formation incubated for 30 mins in the presence of NiCl2 by UV-vis spectrophotometric analysis
[10] = Competitive binding affinity to Fe(III) assessed as metal chelating activity by measuring compound-Fe(III) complex formation incubated for 30 mins in the presence of FeCl2 by UV-Visible spectrophotometric analysis
[11] = Competitive binding affinity to Cu(II) assessed as metal chelating activity by measuring compound-Cu(II) complex formation incubated for 30 mins in the presence of MnCl2 by UV-vis spectrophotometric analysis
[12] = Competitive binding affinity to Zn(II) assessed as metal chelating activity by measuring compound-Zn(II) complex formation incubated for 30 mins in the presence of FeCl2 by UV-vis spectrophotometric analysis
[13] = Competitive binding affinity to Zn(II) assessed as metal chelating activity by measuring compound-Zn(II) complex formation incubated for 30 mins in the presence of NiCl2 by UV-vis spectrophotometric analysis
[14] = Competitive binding affinity to Cu(II) assessed as metal chelating activity by measuring compound-Cu(II) complex formation incubated for 30 mins in the presence of FeCl2 by UV-vis spectrophotometric analysis
[15] = Competitive binding affinity to Fe(III) assessed as metal chelating activity by measuring compound-Fe(III) complex formation incubated for 30 mins in the presence of CaCl2 by UV-Visible spectrophotometric analysis
[16] = Competitive binding affinity to Zn(II) assessed as metal chelating activity by measuring compound-Zn(II) complex formation incubated for 30 mins in the presence of MgSO4.7H2O by UV-vis spectrophotometric analysis
[17] = Competitive binding affinity to Cu(II) assessed as metal chelating activity by measuring compound-Cu(II) complex formation incubated for 30 mins in the presence of ZnSO4.7H2O by UV-vis spectrophotometric analysis
[18] = biological target: T1, Amyloid-beta precursor protein; experiment: Binding affinity to amyloid-beta (unknown origin) in Tris-HCL buffer assessed as conformational change at 10 uM at 1:1 molar ratio incubated for 24 hrs by circular dichroism analysis
[19] = Metal chelating activity assessed as compound-Zn(II) complex formation by measuring hyperchromic shift at 1:1 molar ratio incubated for 30 mins by UV-Visible spectrophotometric analysis
[20] = Competitive binding affinity to Fe(III) assessed as metal chelating activity by measuring compound-Fe(III) complex formation incubated for 30 mins in the presence of zinc by UV-Visible spectrophotometric analysis
[21] = Competitive binding affinity to Cu(II) assessed as metal chelating activity by measuring compound-Cu(II) complex formation incubated for 30 mins in the presence of CaCl2 by UV-vis spectrophotometric analysis
[22] = Competitive binding affinity to Fe(III) assessed as metal chelating activity by measuring compound-Fe(III) complex formation incubated for 30 mins in the presence of MgSO4.7H2O by UV-Visible spectrophotometric analysis
[23] = Competitive binding affinity to Zn(II) assessed as metal chelating activity by measuring compound-Zn(II) complex formation incubated for 30 mins in the presence of copper by UV-vis spectrophotometric analysis
[24] = Metal chelating activity assessed as compound-Fe(III) complex formation by measuring hyperchromic shift at 1:1 molar ratio incubated for 30 mins by UV-Visible spectrophotometric analysis
[25] = Antioxidant activity assessed as DPPH radical scavenging activity at 10 uM incubated under dark condition for 30 mins by absorbance based plate reader analysis; format: functional
[26] = Competitive binding affinity to Cu(II) assessed as metal chelating activity by measuring compound-Cu(II) complex formation incubated for 30 mins in the presence of MgSO4.7H2O by UV-vis spectrophotometric analysis
[27] = Metal chelating activity assessed as compound-Cu(II) complex formation by measuring hyperchromic shift at 1:1 molar ratio incubated for 30 mins by UV-Visible spectrophotometric analysis
[28] = Competitive binding affinity to Zn(II) assessed as metal chelating activity by measuring compound-Zn(II) complex formation incubated for 30 mins in the presence of CaCl2 by UV-vis spectrophotometric analysis
[29] = Competitive binding affinity to Fe(III) assessed as metal chelating activity by measuring compound-Fe(III) complex formation incubated for 30 mins in the presence of NiCl2 by UV-Visible spectrophotometric analysis
[30] = Competitive binding affinity to Zn(II) assessed as metal chelating activity by measuring compound-Zn(II) complex formation incubated for 30 mins in the presence of MnCl2 by UV-vis spectrophotometric analysis

## CC(C)(C)OC(=O)N[C@H](CNc1c(N[C@@H](CC(=O)O)C(=O)O)c(=O)c1=O)Cc1ccccc1
N2a
  Activity: Non-Toxic

## CC(C)(C)OC(=O)N[C@H](CNc1c(N[C@@H](Cc2ccc(O)cc2)C(=O)O)c(=O)c1=O)Cc1ccccc1
N2a
  Activity: Non-Toxic

## CC(C)(C)OC(=O)N[C@H](CNc1c(N[C@@H](CCCNC(=N)N)C(=O)O)c(=O)c1=O)Cc1ccccc1
N2a
  Activity: Non-Toxic

## CSCC[C@H](Nc1c(NC[C@H](Cc2ccccc2)NC(=O)OC(C)(C)C)c(=O)c1=O)C(=O)O
N2a
  Activity: Non-Toxic

## CC(C)(C)OC(=O)N[C@H](CNc1c(N[C@@H](CO)C(=O)O)c(=O)c1=O)Cc1ccccc1
N2a
  Activity: Non-Toxic

## CC(C)(C)OC(=O)N[C@H](CNc1c(N[C@@H](CC(N)=O)C(=O)O)c(=O)c1=O)Cc1ccccc1
N2a
  Activity: Non-Toxic
[1]
  inhibition: Active
[2]
  IC50: 17.5 µM

## CC(C)(C)OC(=O)N[C@H](CNc1c(N[C@@H](Cc2ccccc2)C(=O)O)c(=O)c1=O)Cc1ccccc1
N2a
  Activity: Non-Toxic
[1]
  inhibition: Active
[2]
  IC50: 14.6 µM

## CC(C)(C)OC(=O)N[C@H](CNc1c(NCC(=O)O)c(=O)c1=O)Cc1ccccc1
N2a
  Activity: Non-Toxic

## COc1c(OC)c(=O)c1=O
[3]
  Activity: Active
[4]
  Activity: Active
[5]
  Activity: Active

## CC(C)(C)OC(=O)N[C@H](CN)Cc1ccccc1
[3]
  Activity: inactive
[4]
  Activity: inactive
[5]
  Activity: inactive

## CC(C)C[C@H](Nc1c(NC[C@H](Cc2ccccc2)NC(=O)OC(C)(C)C)c(=O)c1=O)C(=O)O
N2a
  Activity: Non-Toxic

## CC(C)(C)OC(=O)N[C@H](CNc1c(N[C@@H](CCCCN)C(=O)O)c(=O)c1=O)Cc1ccccc1
N2a
  Activity: Non-Toxic

## CC(C)(C)OC(=O)N[C@H](CNc1c(N[C@@H](Cc2c[nH]cn2)C(=O)O)c(=O)c1=O)Cc1ccccc1
N2a
  Activity: Non-Toxic

## CC[C@@H](C)[C@H](Nc1c(NC[C@H](Cc2ccccc2)NC(=O)OC(C)(C)C)c(=O)c1=O)C(=O)O
N2a
  Activity: Non-Toxic

## CC(C)(C)OC(=O)N[C@H](CNc1c(N2CCC[C@H]2C(=O)O)c(=O)c1=O)Cc1ccccc1
N2a
  Activity: Non-Toxic

## C[C@H](O)[C@H](Nc1c(NC[C@H](Cc2ccccc2)NC(=O)OC(C)(C)C)c(=O)c1=O)C(=O)O
[6]
  inhibition: Active
[7]
  Activity: Active
[8]
  Activity: Active
N2a
  Activity: Non-Toxic
[9]
  Activity: Active
[10]
  Activity: Active
[11]
  Activity: Active
[12]
  Activity: Active
[13]
  Activity: Active
[1]
  inhibition: Active
[14]
  Activity: Active
[15]
  Activity: Active
[16]
  Activity: Active
[17]
  Activity: Active
[18]
  Activity: Active
[19]
  Activity: Active
[20]
  Activity: Active
[21]
  Activity: Active
[2]
  IC50: 8.08 µM
[22]
  Activity: Active
[23]
  Activity: Active
[24]
  Activity: Active
[25]
  Activity: Active
[26]
  Activity: Active
[27]
  Activity: Active
[28]
  Activity: Active
[29]
  Activity: Active
[30]
  Activity: Active

## CC(C)(C)OC(=O)N[C@H](CNc1c(N[C@@H](Cc2c[nH]c3ccccc23)C(=O)O)c(=O)c1=O)Cc1ccccc1
N2a
  Activity: Non-Toxic

## CC(C)[C@H](Nc1c(NC[C@H](Cc2ccccc2)NC(=O)OC(C)(C)C)c(=O)c1=O)C(=O)O
[6]
  inhibition: Active
N2a
  Activity: Non-Toxic
[9]
  Activity: inactive
[11]
  Activity: inactive
[12]
  Activity: Active
[13]
  Activity: Active
[1]
  inhibition: Active
[14]
  Activity: inactive
[16]
  Activity: Active
[17]
  Activity: inactive
[21]
  Activity: inactive
[2]
  IC50: 7.71 µM
[23]
  Activity: Active
[25]
  Activity: Active
[26]
  Activity: inactive
[27]
  Activity: inactive
[28]
  Activity: Active
[30]
  Activity: Active

## C[C@H](Nc1c(NC[C@H](Cc2ccccc2)NC(=O)OC(C)(C)C)c(=O)c1=O)C(=O)O
N2a
  Activity: Non-Toxic

## CC(C)(C)OC(=O)N[C@H](CNc1c(N[C@@H](CCC(N)=O)C(=O)O)c(=O)c1=O)Cc1ccccc1
N2a
  Activity: Non-Toxic

## CC(C)(C)OC(=O)N[C@H](CNc1c(N[C@@H](CS)C(=O)O)c(=O)c1=O)Cc1ccccc1
N2a
  Activity: Non-Toxic

## CC(C)(C)OC(=O)N[C@H](CNc1c(N[C@@H](CCC(=O)O)C(=O)O)c(=O)c1=O)Cc1ccccc1
N2a
  Activity: Non-Toxic

## COc1c(NC[C@H](Cc2ccccc2)NC(=O)OC(C)(C)C)c(=O)c1=O
[3]
  Activity: Active
[4]
  Activity: Active
[5]
  Activity: Active
